The results in this text go back to US10219516B2, “Molecules having pesticidal utility, and intermediates, compositions, and processes, related thereto” (priority 2015, dated 2019).

Holding throughout (assay type): in vivo
In test [1] the test system is Beet Armyworm (Spodoptera exigua, LAPHEG). Description: Bioassay on Beet Armyworm (BAW), 128-well diet tray assay. Particulars: Species BAW (Beet Armyworm), read-out: BAW (Biological Results, rating). Put shortly: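 In a 128-well format, eight wells per compound received a surface dose of 50 μg/cm^2 on artificial diet. After drying, each well got one to five second instar larvae, held at 25° C. with 14:10 photoperiod. Mortality percentages after five to seven days were averaged.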

The test system of test [2] is Green Peach Aphid (Myzus persicae, MYZUPE). Briefly: Bioassay on Green Peach Aphid (GPA), foliar spray on infested cabbage seedlings. Particulars: foliar, 72 h, Species GPA (Green Peach Aphid), read-out: GPA (Biological Results, rating). How it is done:
Certain molecules disclosed in this document were tested against GPA using procedures described in the following example. In the reporting of the results, the “GPA & YFM Rating Table” was used (See Table Section).
Cabbage seedlings grown in 3-inch pots, with 2-3 small (3-5 cm) true leaves, were used as test substrate. The seedlings were infested with 20-50 GPA (wingless adult and nymph stages) one day prior to chemical application. Four pots with individual seedlings were used for each treatment. Test molecules (2 mg) were dissolved in 2 mL of acetone/methanol (1:1) solvent, forming stock solutions of 1000 ppm test molecule. The stock solutions were diluted 5× with 0.025% Tween 20 in water to obtain the solution at 200 ppm test molecule. A hand-held aspirator-type sprayer was used for spraying a solution to both sides of […] leaves until runoff. Reference plants (solvent check) were sprayed with the diluent only containing 20% by volume of acetone/methanol (1:1) solvent. Treated plants were held in a holding room for three days at approximately 25° C. and ambient relative humidity (RH) prior to grading. Evaluation was conducted by counting the number of live aphids per plant under a microscope. Percent control was measured using Abbott's correction formula (W. S. Abbott, “A Method of Computing the Effectiveness of an Insecticide” 3. Econ. Entomol. 18 (1925), pp. 265-267) as follows. Corrected % Control=100*(X−Y)/X where X=No. of live aphids on solvent check plants and Y=No. of live aphids on treated plants. The results are indicated in the table entitled “Table ABC: Biological Results” (See Table Section).

Test [3] has as its system Cabbage Looper (Trichoplusia ni, TRIPNI). Briefly: Bioassay on Cabbage Looper (CL), 128-well diet tray assay. Particulars: Trichoplusia ni; Species CL (Cabbage Looper); read-out: CL (Biological Results, rating). The method in brief: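 Second-instar larvae, one to five per well, were placed on artificial diet surface-treated with 50 μg/cm^2 test molecule applied in 90:10 acetone-water and dried, eight wells per molecule. Trays were covered, vented and held at 25° C., 14:10 light-dark for five to seven days; percent mortality per well was averaged.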

SMILES strings stand for the structures.

Turning to `O=C(Nc1ccc(F)cc1)c1cccc(NC(=O)[C@H]2[C@H](c3cc(Cl)cc(Cl)c3)C2(Cl)Cl)c1Cl` (relative stereo) [F127, trans-2-Chloro-3-(2,2-dichloro-3-(3,5-dichlorophenyl)cyclopropane-1-carboxamido)-N-(4-fluorophenyl)benzamide], the pest or weed control at 50 µg/cm2 in test [1] and in test [3] was 50 to 100% throughout. The pest or weed control at 200 µg/mL in test [2] was in the range of 0 to 80%.

With `CNC(=O)c1ccc(NC(=O)c2cc(NC(=O)[C@H]3[C@H](c4cc(Cl)cc(Cl)c4)C3(Cl)Cl)ccc2Cl)cc1` (relative stereo) [F152, trans-2-Chloro-5-(2,2-dichloro-3-(3,5-dichlorophenyl)cyclopropane-1-carboxamido)-N-(4-(methylcarbamoyl)phenyl)benzamide], the pest or weed control at 50 µg/cm2 in test [1] and in test [3] was 50 to 100% each time. The pest or weed control at 200 µg/mL in test [2] was 0 to 80%.

Regarding `O=C(Nc1ccc(Cl)c(C(=O)N2CCc3cc(F)ccc32)c1)[C@H]1[C@H](c2cc(Cl)cc(Cl)c2)C1(Cl)Cl` (relative stereo) [F155, trans-2,2-Dichloro-N-(4-chloro-3-(5-fluoroindoline-1-carbonyl)phenyl)-3-(3,5-dichlorophenyl)cyclopropane-1-carboxamide], the pest or weed control at 50 µg/cm2 in test [1] and in test [3] was 50 to 100% in each case. In test [2], the pest or weed control at 200 µg/mL lay within 0 to 80%.

With `COc1ccc(NC(=O)c2cc(NC(=O)[C@H]3[C@H](c4cc(Cl)cc(Cl)c4)C3(Cl)Cl)ccc2Cl)c(F)c1` (relative stereo) [F150, trans-2-Chloro-5-(2,2-dichloro-3-(3,5-dichlorophenyl)cyclopropane-1-carboxamido)-N-(2-fluoro-4-methoxyphenyl)benzamide], the pest or weed control at 50 µg/cm2 in test [1] and in test [3] was 50 to 100% in each case. In test [2], the pest or weed control at 200 µg/mL is 80 to 100%.

Turning to `O=C(Nc1ccc(F)cc1)c1cc(NC(=O)[C@H]2[C@H](c3cc(Cl)cc(Cl)c3)C2(Cl)Cl)ccc1Br` (relative stereo) [F11, trans-2-Bromo-5-(2,2-dichloro-3-(3,5-dichlorophenyl)cyclopropane-1-carboxamido)-N-(4-fluorophenyl)benzamide], the pest or weed control at 50 µg/cm2 in test [1] and in test [3] was 50 to 100% throughout. For the same compound, in test [2], the pest or weed control at 200 µg/mL fell in the range of 0 to 80%.

For the compound `O=C(Nc1ccc(F)nc1)c1cc(NC(=O)[C@H]2[C@H](c3cc(Cl)cc(Cl)c3)C2(Cl)Cl)ccc1Cl` (relative stereo) [F142, trans-2-chloro-5-(2,2-dichloro-3-(3,5-dichlorophenyl)cyclopropane-1-carboxamido)-N-(6-fluoropyridin-3-yl)benzamide], the pest or weed control at 50 µg/cm2 in test [1] and in test [3] was 50 to 100% throughout. Moreover, the pest or weed control at 200 µg/mL in test [2] was 80 to 100%.

Turning to `O=C(Nc1ccc(OC(F)F)cc1)c1cc(NC(=O)[C@H]2[C@H](c3cc(Cl)cc(Cl)c3)C2(Cl)Cl)ccc1Cl` (relative stereo) [F148, trans-2-Chloro-5-(2,2-dichloro-3-(3,5-dichlorophenyl)cyclopropane-1-carboxamido)-N-(4-(difluoromethoxy)phenyl)benzamide], the pest or weed control at 50 µg/cm2 in test [1] and in test [3] was 50 to 100% in each case. The pest or weed control at 200 µg/mL in test [2] is 0 to 80%.

As for `O=C(Nc1ccc(F)cc1Cl)c1cc(NC(=O)[C@H]2[C@H](c3cc(Cl)cc(Cl)c3)C2(Cl)Cl)ccc1Cl` (relative stereo) [F8, trans-2-Chloro-N-(2-chloro-4-fluorophenyl)-5-(2,2-dichloro-3-(3,5-dichlorophenyl)cyclopropane-1-carboxamido)benzamide], the pest or weed control at 50 µg/cm2 in test [1] and in test [3] was 50 to 100% throughout. Moreover, the pest or weed control at 200 µg/mL in test [2] is 80 to 100%.

Turning to `CN(C(=O)c1cc(NC(=O)[C@H]2[C@H](c3cc(Cl)cc(Cl)c3)C2(Cl)Cl)ccc1F)c1ccc(F)cc1` (relative stereo) [F45, trans-5-(2,2-Dichloro-3-(3,5-dichlorophenyl)cyclopropane-1-carboxamido)-2-fluoro-N-(4-fluorophenyl)-N-methylbenzamide], the pest or weed control at 50 µg/cm2 in test [1] and in test [3] was 50 to 100% throughout. Moreover, the pest or weed control at 200 µg/mL in test [2] was in the range of 0 to 80%.

For `O=C(Nc1ccc(F)cc1)c1cc(NC(=O)[C@H]2[C@H](c3cc(Cl)cc(Cl)c3)C2(Cl)Cl)c(F)cc1F` (relative stereo) [F49, trans-5-(2,2-Dichloro-3-(3,5-dichlorophenyl)cyclopropane-1-carboxamido)-2,4-difluoro-N-(4-fluorophenyl)benzamide], the pest or weed control at 50 µg/cm2 in test [1] and in test [3] was 50 to 100% each time. Moreover, the pest or weed control at 200 µg/mL in test [2] lay in the range of 0 to 80%.

As for `O=C(Nc1ccc(F)cc1)c1cc(NC(=O)[C@H]2[C@H](c3cc(Cl)cc(Cl)c3)C2(Cl)Cl)ccn1` (relative stereo) [F126, trans-4-(2,2-dichloro-3-(3,5-dichlorophenyl)cyclopropane-1-carboxamido)-N-(4-fluorophenyl)picolinamide], the pest or weed control at 50 µg/cm2 in test [1] and in test [3] was 50 to 100% throughout. In addition, in test [2], the pest or weed control at 200 µg/mL is 0 to 80%.

Turning to `Cc1cc([C@H]2[C@H](C(=O)Nc3ccc(Cl)c(C(=O)N(C)c4ccc(F)cc4)c3)C2(Cl)Cl)cc(Cl)c1Cl` (relative stereo) [F124, trans-2-Chloro-5-(2,2-dichloro-3-(3,4-dichloro-5-methylphenyl)cyclopropane-1-carboxamido)-N-(4-fluorophenyl)-N-methylbenzamide], the pest or weed control at 50 µg/cm2 in test [1] and in test [3] was 50 to 100% throughout. The pest or weed control at 200 µg/mL in test [2] was 0 to 80%.

For `O=C(Nc1ccc(F)cc1)c1cc(NC(=O)[C@H]2[C@H](c3cc(Cl)c(F)c(Cl)c3)C2(Cl)Cl)ccc1Cl` (relative stereo) [F96, trans-2-Chloro-5-(2,2-dichloro-3-(3,5-dichloro-4-fluorophenyl)cyclopropane-1-carboxamido)-N-(4-fluorophenyl)benzamide], the pest or weed control at 50 µg/cm2 in test [1] and in test [3] was 50 to 100% in each case. For the same compound, the pest or weed control at 200 µg/mL in test [2] was 80 to 100%.

Turning to `Cc1ccc(NC(=O)c2cc(NC(=O)[C@H]3[C@H](c4cc(Cl)cc(Cl)c4)C3(Cl)Cl)ccc2Cl)c(F)c1` (relative stereo) [F151, trans-2-Chloro-5-(2,2-dichloro-3-(3,5-dichlorophenyl)cyclopropane-1-carboxamido)-N-(2-fluoro-4-methylphenyl)benzamide], the pest or weed control at 50 µg/cm2 in test [1] and in test [3] was 50 to 100% throughout. In addition, the pest or weed control at 200 µg/mL in test [2] fell in the range of 80 to 100%.

As to `COc1ccc(NC(=O)[C@H]2[C@H](c3cc(Cl)cc(Cl)c3)C2(Cl)Cl)cc1C(=O)Nc1ccc(F)cc1` (relative stereo) [F128, trans-5-(2,2-Dichloro-3-(3,5-dichlorophenyl)cyclopropane-1-carboxamido)-N-(4-fluorophenyl)-2-methoxybenzamide], the pest or weed control at 50 µg/cm2 is 0 to 50% in test [1] and 50 to 100% in test [3]. In addition, the pest or weed control at 200 µg/mL in test [2] lay within 0 to 80%.
